Measurements reported in ChEMBL document CHEMBL3621049, “Imidazole derivatives show anticancer potential by inducing apoptosis and cellular senescence” (2014).
Active and inactive are the calls of the source. No cut-off for these calls is given here.

How the values were obtained:
A549 [1] = experiment: Inhibition of colony formation in human A549 cells assessed as change in colony morphology after 14 days using crystal violet staining by soft agar assay; type: functional, cell-based
OVCAR-8 = experiment: Growth inhibition of human OVCAR8 cells at 10 uM by sulforhodamine B assay; type: functional, cell-based
A549 [2] = experiment: Inhibition of cell migration in human A549 cells assessed as cells migrating into scratch area after 24 hrs by wound healing assay; type: functional, cell-based
DU-145 = experiment: Growth inhibition of human DU145 cells at 10 uM by sulforhodamine B assay; type: functional, cell-based
CCRF-CEM = experiment: Growth inhibition of human CCRF-CEM cells at 10 uM by sulforhodamine B assay; type: functional, cell-based
SF-268 = experiment: Growth inhibition of human SF268 cells at 10 uM by sulforhodamine B assay; type: functional, cell-based
IGROV-1 = experiment: Growth inhibition of human IGROV1 cells at 10 uM by sulforhodamine B assay; type: functional, cell-based
A549 [3] = experiment: Cytotoxicity against human A549 cells assessed as decrease in cell viability up to 72 hrs by MTT assay; type: functional, cell-based
SF-539 = experiment: Growth inhibition of human SF539 cells at 10 uM by sulforhodamine B assay; type: functional, cell-based
OVCAR-4 = experiment: Growth inhibition of human OVCAR4 cells at 10 uM by sulforhodamine B assay; type: functional, cell-based
NCI-H23 = experiment: Growth inhibition of human NCI-H23 cells at 10 uM by sulforhodamine B assay; type: functional, cell-based
MOLT-4 = experiment: Growth inhibition of human MOLT4 cells at 10 uM by sulforhodamine B assay; type: functional, cell-based
A549 [4] = experiment: Inhibition of colony formation in human A549 cells after 14 days using crystal violet staining by soft agar assay; type: functional, cell-based
A549 [5] = experiment: Cell cycle arrest in human A549 cells assessed as accumulation at G0/G1 phase at 20 uM after 48 hrs using propidium iodide staining by flow cytometer analysis (reference value: 79.34%); type: functional
PC-3 = experiment: Growth inhibition of human PC3 cells at 10 uM by sulforhodamine B assay; type: functional, cell-based
RXF 393 = experiment: Growth inhibition of human RXF393 cells at 10 uM by sulforhodamine B assay; type: functional, cell-based
MDA-MB-435 = experiment: Growth inhibition of human MDA-MB-435 cells at 10 uM by sulforhodamine B assay; type: functional, cell-based
786-0 = experiment: Growth inhibition of human 786-0 cells at 10 uM by sulforhodamine B assay; type: functional, cell-based
ACHN = experiment: Growth inhibition of human ACHN cells at 10 uM by sulforhodamine B assay; type: functional, cell-based
NCI/ADR-RES = experiment: Growth inhibition of human NCI/ADR-RES cells at 10 uM by sulforhodamine B assay; type: functional, cell-based
SN12C = experiment: Growth inhibition of human SN12C cells at 10 uM by sulforhodamine B assay; type: functional, cell-based
HCT-116 = experiment: Growth inhibition of human HCT116 cells at 10 uM by sulforhodamine B assay; type: functional, cell-based
UO-31 = experiment: Growth inhibition of human UO31 cells at 10 uM by sulforhodamine B assay; type: functional, cell-based
A549 [6] = experiment: Cell cycle arrest in human A549 cells assessed as accumulation at sub-G1 phase at 5 uM after 48 hrs using propidium iodide staining by flow cytometer analysis (reference value: 0.96%); type: functional
HCT-15 = experiment: Growth inhibition of human HCT15 cells at 10 uM by sulforhodamine B assay; type: functional, cell-based
A549 [7] = experiment: Cell cycle arrest in human A549 cells assessed as accumulation at S phase at 10 uM after 48 hrs using propidium iodide staining by flow cytometer analysis (reference value: 6.67%); type: functional
A498 = experiment: Growth inhibition of human A498 cells at 10 uM by sulforhodamine B assay; type: functional, cell-based
SK-OV-3 = experiment: Growth inhibition of human SKOV3 cells at 10 uM by sulforhodamine B assay; type: functional, cell-based
SNB-75 = experiment: Growth inhibition of human SNB75 cells at 10 uM by sulforhodamine B assay; type: functional, cell-based
NCI-H226 = experiment: Growth inhibition of human NCI-H226 cells at 10 uM by sulforhodamine B assay; type: functional, cell-based
HOP-62 = experiment: Growth inhibition of human HOP62 cells at 10 uM by sulforhodamine B assay; type: functional, cell-based
A549 [8] = experiment: Cell cycle arrest in human A549 cells assessed as accumulation at sub-G1 phase at 20 uM after 48 hrs using propidium iodide staining by flow cytometer analysis (reference value: 0.96%); type: functional
SR = experiment: Growth inhibition of human SR cells at 10 uM by sulforhodamine B assay; type: functional, cell-based
CAKI-1 = experiment: Growth inhibition of human Caki1 cells at 10 uM by sulforhodamine B assay; type: functional, cell-based
A549 [9] = experiment: Induction of morphological changes in human A549 cells at 10 to 50 uM; type: functional, cell-based
SW-620 = experiment: Growth inhibition of human SW620 cells at 10 uM by sulforhodamine B assay; type: functional, cell-based
A549 [10] = experiment: Induction of cellular senescence in human A549 cells assessed as increase of endogenous level of beta-galactosidase by […]/X-gal staining; type: functional, cell-based
OVCAR-3 = experiment: Growth inhibition of human OVCAR3 cells at 10 uM by sulforhodamine B assay; type: functional, cell-based
T47D = experiment: Growth inhibition of human T47D cells at 10 uM by sulforhodamine B assay; type: functional, cell-based
A549 [11] = experiment: Cell cycle arrest in human A549 cells assessed as accumulation at G2/M phase at 5 uM after 48 hrs using propidium iodide staining by flow cytometer analysis (reference value: 13.02%); type: functional
A549 [12] = experiment: Cell cycle arrest in human A549 cells assessed as accumulation at S phase at 20 uM after 48 hrs using propidium iodide staining by flow cytometer analysis (reference value: 6.67%); type: functional
A549 [13] = experiment: Cell cycle arrest in human A549 cells assessed as accumulation at G2/M phase at 20 uM after 48 hrs using propidium iodide staining by flow cytometer analysis (reference value: 13.02%); type: functional
MCF7 = experiment: Growth inhibition of human MCF7 cells at 10 uM by sulforhodamine B assay; type: functional, cell-based
A549 [14] = experiment: Growth inhibition of human A549/ATCC cells at 10 uM by sulforhodamine B assay; type: functional, cell-based
SK-MEL-2 = experiment: Growth inhibition of human SK-MEL-2 cells at 10 uM by sulforhodamine B assay; type: functional, cell-based
Malme-3M = experiment: Growth inhibition of human MALME-3M cells at 10 uM by sulforhodamine B assay; type: functional, cell-based
MDA-MB-231 = experiment: Growth inhibition of human MDA-MB-231 cells at 10 uM by sulforhodamine B assay; type: functional, cell-based
SF-295 = experiment: Growth inhibition of human SF295 cells at 10 uM by sulforhodamine B assay; type: functional, cell-based
KM12 = experiment: Growth inhibition of human KM12 cells at 10 uM by sulforhodamine B assay; type: functional, cell-based
MDA-MB-468 = experiment: Growth inhibition of human MDA-MB-468 cells at 10 uM by sulforhodamine B assay; type: functional, cell-based
A549 [15] = experiment: Cell cycle arrest in human A549 cells assessed as accumulation at S phase at 5 uM after 48 hrs using propidium iodide staining by flow cytometer analysis (reference value: 6.67%); type: functional

**Q.** For `COc1ccc(-c2nc(-c3ccccn3)c(-c3ccccn3)n2CC(C)C)cc1OC1CCCC1`, which inhibition (A549 [1]) is on record?
**A.** Active

**Q.** And the “growth inhibition (GI)” value (OVCAR-8)?
**A.** Active

**Q.** What about the inhibition (A549 [2]) of the same molecule?
**A.** Dose-dependent effect

**Q.** And the “growth inhibition (GI)” value (DU-145)?
**A.** Active

**Q.** What about the “growth inhibition (GI)” value (CCRF-CEM) of the same molecule?
**A.** Active

**Q.** What about the “growth inhibition (GI)” value (SF-268) of the same molecule?
**A.** Active

**Q.** What about the “growth inhibition (GI)” value (IGROV-1) of the same molecule?
**A.** Active

**Q.** What about the Activity (A549 [3]) of the same molecule?
**A.** Dose-dependent effect

**Q.** What about the “growth inhibition (GI)” value (SF-539) of the same molecule?
**A.** Active

**Q.** And the “growth inhibition (GI)” value (OVCAR-4)?
**A.** Active

**Q.** What about the “growth inhibition (GI)” value (NCI-H23) of the same molecule?
**A.** Active

**Q.** And the “growth inhibition (GI)” value (MOLT-4)?
**A.** Active

**Q.** What about the inhibition (A549 [4]) of the same molecule?
**A.** Dose-dependent effect

**Q.** What about the Activity (A549 [5]) of the same molecule?
**A.** 69.52%

**Q.** What about the “growth inhibition (GI)” value (PC-3) of the same molecule?
**A.** Active

**Q.** And the “growth inhibition (GI)” value (RXF 393)?
**A.** Active

**Q.** And the “growth inhibition (GI)” value (MDA-MB-435)?
**A.** Active

**Q.** What about the “growth inhibition (GI)” value (786-0) of the same molecule?
**A.** Active

**Q.** What about the “growth inhibition (GI)” value (ACHN) of the same molecule?
**A.** Active

**Q.** What about the “growth inhibition (GI)” value (NCI/ADR-RES) of the same molecule?
**A.** Active

**Q.** And the “growth inhibition (GI)” value (SN12C)?
**A.** Active

**Q.** And the “growth inhibition (GI)” value (HCT-116)?
**A.** Active

**Q.** And the “growth inhibition (GI)” value (UO-31)?
**A.** Active

**Q.** What about the Activity (A549 [6]) of the same molecule?
**A.** 2.49%

**Q.** What about the “growth inhibition (GI)” value (HCT-15) of the same molecule?
**A.** Active

**Q.** And the Activity (A549 [7])?
**A.** 9.95%

**Q.** What about the “growth inhibition (GI)” value (A498) of the same molecule?
**A.** Active

**Q.** What about the “growth inhibition (GI)” value (SK-OV-3) of the same molecule?
**A.** Active

**Q.** What about the “growth inhibition (GI)” value (SNB-75) of the same molecule?
**A.** Active

**Q.** And the “growth inhibition (GI)” value (NCI-H226)?
**A.** Active

**Q.** What about the “growth inhibition (GI)” value (HOP-62) of the same molecule?
**A.** Active

**Q.** What about the Activity (A549 [8]) of the same molecule?
**A.** 19.34%

**Q.** What about the “growth inhibition (GI)” value (SR) of the same molecule?
**A.** Active

**Q.** And the “growth inhibition (GI)” value (CAKI-1)?
**A.** Active

**Q.** What about the Activity (A549 [9]) of the same molecule?
**A.** Active

**Q.** What about the “growth inhibition (GI)” value (SW-620) of the same molecule?
**A.** Active

**Q.** And the Activity (A549 [10])?
**A.** Dose-dependent effect

**Q.** And the “growth inhibition (GI)” value (OVCAR-3)?
**A.** Active

**Q.** And the “growth inhibition (GI)” value (T47D)?
**A.** Active

**Q.** What about the Activity (A549 [11]) of the same molecule?
**A.** 4.65%

**Q.** And the Activity (A549 [12])?
**A.** 6.63%

**Q.** And the Activity (A549 [13])?
**A.** 4.51%

**Q.** And the “growth inhibition (GI)” value (MCF7)?
**A.** Active

**Q.** And the “growth inhibition (GI)” value (A549 [14])?
**A.** Active

**Q.** What about the “growth inhibition (GI)” value (SK-MEL-2) of the same molecule?
**A.** Active

**Q.** And the “growth inhibition (GI)” value (Malme-3M)?
**A.** Active

**Q.** What about the “growth inhibition (GI)” value (MDA-MB-231) of the same molecule?
**A.** Active

**Q.** And the “growth inhibition (GI)” value (SF-295)?
**A.** Active

**Q.** What about the “growth inhibition (GI)” value (KM12) of the same molecule?
**A.** Active

**Q.** What about the “growth inhibition (GI)” value (MDA-MB-468) of the same molecule?
**A.** Active

**Q.** What about the Activity (A549 [15]) of the same molecule?
**A.** 3.47%
